Test results reported in patent US10526389B2, “Peptides and combinations of peptides for use in immunotherapy against lung cancer, including NSCLC and other cancers” (Immatics Biotechnologies GmbH, priority 2015, dated 2020).

System: CD8+ T cells
Test: In vitro immunogenicity of HLA-A*02 peptides (CD8+ T-cell priming with aAPCs, multimer staining)
Assay type: cell-based, human
Source text: In order to obtain information regarding the immunogenicity of the TUMAPs of the present invention, the inventors performed investigations using an in vitro T-cell priming assay based on repeated stimulations of CD8+ T cells with artificial antigen presenting cells (aAPCs) loaded with peptide/MHC complexes and anti-CD28 antibody.
In order to perform in vitro stimulations by artificial antigen presenting cells loaded with peptide-MHC complex (pMHC) and anti-CD28 antibody, the inventors first isolated CD8+ T cells from fresh HLA-A*02 leukapheresis products via positive selection using CD8 microbeads (Miltenyi Biotec, Bergisch-Gladbach, Germany) of healthy donors obtained from the University clinics Mannheim, Germany, after informed consent.
PBMCs and isolated CD8+ lymphocytes were incubated in T-cell medium (TCM) until use consisting of RPMI-Glutamax (Invitrogen, Karlsruhe, Germany) supplemented with 10% heat inactivated human AB serum (PAN-Biotech, Aidenbach, Germany), 100 U/ml Penicillin/100 μg/ml Streptomycin (Cambrex, Cologne, Germany), 1 mM sodium pyruvate (CC Pro, Oberdorla, Germany), 20 μg/ml Gentamycin (Cambrex). 2.5 ng/ml IL-7 (PromoCell, Heidelberg, Germany) and 10 U/ml IL-2 (Novartis Pharma, Nurnberg, Germany) were also added to the TCM at this step.
Generation of pMHC/anti-CD28 coated beads, T-cell stimulations and readout was performed in a highly defined in vitro system using four different pMHC molecules per stimulation condition and 8 different pMHC molecules per readout condition.
The purified co-stimulatory mouse IgG2a anti human CD28 Ab 9.3 (Jung et al., 1987) was chemically biotinylated using Sulfo-N-hydroxysuccinimidobiotin as recommended by the manufacturer (Perbio, Bonn, Germany). Beads used were 5.6 μm diameter streptavidin coated polystyrene particles (Bangs Laboratories, Illinois, USA).
800.000 beads/200 μl were coated in 96-well plates in the presence of 4×12.5 ng different biotin-pMHC, washed and 600 ng biotin anti-CD28 were added subsequently in a volume of 200 μl. Stimulations were initiated in 96-well plates by co-incubating 1×10^6 CD8+ T cells with 2×10^5 washed coated beads in 200 μl TCM supplemented with 5 ng/ml IL-12 (PromoCell) for 3 days at 37° C. Half of the medium was then exchanged by fresh TCM supplemented with 80 U/ml IL-2 and incubating was continued for 4 days at 37° C. This stimulation cycle was performed for a total of three times. For the pMHC multimer readout using 8 different pMHC molecules per condition, a two-dimensional combinatorial coding approach was used as previously described (Andersen et al., 2012) with minor modifications encompassing coupling to 5 different fluorochromes. Finally, multimeric analyses were performed by staining the cells with Live/dead near IR dye (Invitrogen, Karlsruhe, Germany), CD8-FITC antibody clone SK1 (BD, Heidelberg, Germany) and fluorescent pMHC multimers. For analysis, a BD LSRII SORP cytometer equipped with appropriate lasers and filters was used. Peptide specific cells were calculated as percentage of total CD8+ cells. Evaluation of multimeric analysis was done using the FlowJo software (Tree Star, Oregon, USA). In vitro priming of specific multimer+CD8+ lymphocytes was detected by comparing to negative control stimulations.

PCNXL3-001 (GVLENIFGV; listed as Homo sapiens)
in vitro immunogenicity: donors: +++ (50%-69% = +++) | in vitro immunogenicity: wells: + (<20% = +)

MXRA5-002 (GLTDNIHLV; listed as Homo sapiens)
in vitro immunogenicity: donors: ++++ (>= 70% = ++++) | in vitro immunogenicity: wells: + (<20% = +)

TNC-001 (AMTQLLAGV; listed as Homo sapiens)
in vitro immunogenicity: donors: ++ (20%-49% = ++) | in vitro immunogenicity: wells: + (<20% = +)

ERO-001 (LLLEILHEI; listed as Homo sapiens)
in vitro immunogenicity: donors: +++ (50%-69% = +++) | in vitro immunogenicity: wells: + (<20% = +)

ILLTEQINL (listed as Homo sapiens) [SEQ ID No. 18]
in vitro immunogenicity: donors: ++ (20%-49% = ++) | in vitro immunogenicity: wells: + (<20% = +)

CCNB2-001 (ILVDWLVQV; listed as Homo sapiens)
in vitro immunogenicity: donors: ++++ (>= 70% = ++++) | in vitro immunogenicity: wells: ++ (20%-49% = ++)

FLFDGSANL (listed as Homo sapiens) [SEQ ID No. 13]
in vitro immunogenicity: donors: ++ (20%-49% = ++) | in vitro immunogenicity: wells: + (<20% = +)

IVDDITYNV (listed as Homo sapiens) [SEQ ID No. 119]
in vitro immunogenicity: donors: ++++ (>= 70% = ++++) | in vitro immunogenicity: wells: ++ (20%-49% = ++)

YVYQNNIYL (listed as Homo sapiens) [SEQ ID No. 115]
in vitro immunogenicity: donors: ++++ (>= 70% = ++++) | in vitro immunogenicity: wells: + (<20% = +)

KIIGIMEEV (listed as Homo sapiens) [SEQ ID No. 95]
in vitro immunogenicity: donors: ++++ (>= 70% = ++++) | in vitro immunogenicity: wells: ++++ (>= 70% = ++++)

ALVDHTPYL (listed as Homo sapiens) [SEQ ID No. 136]
in vitro immunogenicity: donors: ++++ (>= 70% = ++++) | in vitro immunogenicity: wells: + (<20% = +)

KIQEILTQV (listed as Homo sapiens) [SEQ ID No. 120]
in vitro immunogenicity: donors: ++++ (>= 70% = ++++) | in vitro immunogenicity: wells: + (<20% = +)

TLFPVRLLV (listed as Homo sapiens) [SEQ ID No. 97]
in vitro immunogenicity: donors: ++++ (>= 70% = ++++) | in vitro immunogenicity: wells: +++ (50%-69% = +++)

MAGEF1-001 (ILFPDIIARA; listed as Homo sapiens)
in vitro immunogenicity: donors: ++++ (>= 70% = ++++) | in vitro immunogenicity: wells: +++ (50%-69% = +++)

ILIDWLVQV (listed as Homo sapiens) [SEQ ID No. 117]
in vitro immunogenicity: donors: ++++ (>= 70% = ++++) | in vitro immunogenicity: wells: ++ (20%-49% = ++)

ALVQDLAKA (listed as Homo sapiens) [SEQ ID No. 131]
in vitro immunogenicity: donors: ++++ (>= 70% = ++++) | in vitro immunogenicity: wells: ++ (20%-49% = ++)

ILQDRLNQV (listed as Homo sapiens) [SEQ ID No. 152]
in vitro immunogenicity: donors: +++ (50%-69% = +++) | in vitro immunogenicity: wells: + (<20% = +)

IVAESLQQV (listed as Homo sapiens) [SEQ ID No. 105]
in vitro immunogenicity: donors: + (<20% = +) | in vitro immunogenicity: wells: + (<20% = +)

BNC1-001 (VLFPNLKTV)
in vitro immunogenicity: donors: ++++ (>= 70% = ++++) | in vitro immunogenicity: wells: + (<20% = +)

TLLDFINAV (listed as Homo sapiens) [SEQ ID No. 108]
in vitro immunogenicity: donors: +++ (50%-69% = +++) | in vitro immunogenicity: wells: + (<20% = +)

COG4-001 (SLVAVELEKV)
in vitro immunogenicity: donors: ++++ (>= 70% = ++++) | in vitro immunogenicity: wells: + (<20% = +)

SERPINB3-001 (KLFGEKTYL)
in vitro immunogenicity: donors: +++ (50%-69% = +++) | in vitro immunogenicity: wells: + (<20% = +)

LIQDRVAEV (listed as Homo sapiens) [SEQ ID No. 14]
in vitro immunogenicity: donors: ++++ (>= 70% = ++++) | in vitro immunogenicity: wells: + (<20% = +)

RLLDSVSRL (listed as Homo sapiens) [SEQ ID No. 121]
in vitro immunogenicity: donors: ++++ (>= 70% = ++++) | in vitro immunogenicity: wells: ++ (20%-49% = ++)

TACC3-001 (KLVEFDFLGA; listed as Homo sapiens)
in vitro immunogenicity: donors: +++ (50%-69% = +++) | in vitro immunogenicity: wells: + (<20% = +)

CSNK2A2-001 (VLSSGLTAA; listed as Homo sapiens)
in vitro immunogenicity: donors: + (<20% = +) | in vitro immunogenicity: wells: + (<20% = +)

DUSP4-001 (FVFSFPVSV; listed as Homo sapiens)
in vitro immunogenicity: donors: ++++ (>= 70% = ++++) | in vitro immunogenicity: wells: ++ (20%-49% = ++)

TMEM43-001 (KLLSDPNYGV; listed as Homo sapiens)
in vitro immunogenicity: donors: ++++ (>= 70% = ++++) | in vitro immunogenicity: wells: + (<20% = +)

MXRA5-001 (TLSSIKVEV; listed as Homo sapiens)
in vitro immunogenicity: donors: ++++ (>= 70% = ++++) | in vitro immunogenicity: wells: + (<20% = +)

TGFBI-001 (ALFVRLLALA; listed as Homo sapiens)
in vitro immunogenicity: donors: ++++ (>= 70% = ++++) | in vitro immunogenicity: wells: ++ (20%-49% = ++)

PRPF3-001 (AMGIAPPKV; listed as Homo sapiens)
in vitro immunogenicity: donors: ++++ (>= 70% = ++++) | in vitro immunogenicity: wells: ++++ (>= 70% = ++++)

COL6A3-003 (NLLDLDYEL; listed as Homo sapiens)
in vitro immunogenicity: donors: ++++ (>= 70% = ++++) | in vitro immunogenicity: wells: + (<20% = +)

BUB1B-001 (KIVDFSYSV)
in vitro immunogenicity: donors: ++++ (>= 70% = ++++) | in vitro immunogenicity: wells: ++ (20%-49% = ++)

SLQGSIMTV (listed as Homo sapiens) [SEQ ID No. 6]
in vitro immunogenicity: donors: ++++ (>= 70% = ++++) | in vitro immunogenicity: wells: ++ (20%-49% = ++)

SF3B3-001 (ELDRTPPEV; listed as Homo sapiens)
in vitro immunogenicity: donors: ++++ (>= 70% = ++++) | in vitro immunogenicity: wells: ++ (20%-49% = ++)

YLNVQVKEL (listed as Homo sapiens) [SEQ ID No. 11]
in vitro immunogenicity: donors: ++++ (>= 70% = ++++) | in vitro immunogenicity: wells: + (<20% = +)

DONSON-001 (VLYPHEPTAV; listed as Homo sapiens)
in vitro immunogenicity: donors: ++++ (>= 70% = ++++) | in vitro immunogenicity: wells: + (<20% = +)

RLASYLDKV (listed as Homo sapiens) [SEQ ID No. 133]
in vitro immunogenicity: donors: ++++ (>= 70% = ++++) | in vitro immunogenicity: wells: ++ (20%-49% = ++)

KIF26B-001 (TVAEVIQSV; listed as Homo sapiens)
in vitro immunogenicity: donors: + (<20% = +) | in vitro immunogenicity: wells: + (<20% = +)

COL6A3-007 (FLYDVVKSL; listed as Homo sapiens)
in vitro immunogenicity: donors: ++++ (>= 70% = ++++) | in vitro immunogenicity: wells: + (<20% = +)

WNT5A-001 (AMSSKFFLV; listed as Homo sapiens)
in vitro immunogenicity: donors: ++++ (>= 70% = ++++) | in vitro immunogenicity: wells: ++ (20%-49% = ++)

AIVDKVPSV (listed as Homo sapiens) [SEQ ID No. 143]
in vitro immunogenicity: donors: +++ (50%-69% = +++) | in vitro immunogenicity: wells: + (<20% = +)

KRT-006 (TLLQEQGTKTV; listed as Homo sapiens)
in vitro immunogenicity: donors: ++ (20%-49% = ++) | in vitro immunogenicity: wells: + (<20% = +)

ABCA13-002 (ALDENLHQL)
in vitro immunogenicity: donors: +++ (50%-69% = +++) | in vitro immunogenicity: wells: + (<20% = +)

KLDETNNTL (listed as Homo sapiens) [SEQ ID No. 158]
in vitro immunogenicity: donors: ++ (20%-49% = ++) | in vitro immunogenicity: wells: + (<20% = +)

GFPT2-001 (AIDGNNHEV)
in vitro immunogenicity: donors: ++++ (>= 70% = ++++) | in vitro immunogenicity: wells: +++ (50%-69% = +++)

COL6A3-010 (KLLPYIVGV; listed as Homo sapiens)
in vitro immunogenicity: donors: ++++ (>= 70% = ++++) | in vitro immunogenicity: wells: ++ (20%-49% = ++)

DROSHA-001 (AVVEFLTSV)
in vitro immunogenicity: donors: ++++ (>= 70% = ++++) | in vitro immunogenicity: wells: + (<20% = +)

COL12A1-002 (FLVDGSWSV; listed as Homo sapiens)
in vitro immunogenicity: donors: ++ (20%-49% = ++) | in vitro immunogenicity: wells: + (<20% = +)
